Test results: ChEMBL document CHEMBL3525961, “Identification of human UDP-glucuronosyltransferases involved in N-carbamoyl glucuronidation of lorcaserin” (Drug Metab Dispos, 2012)

Tests used:
[1] = target: T1, UDP-glucuronosyltransferase 2B17 (Homo sapiens, UniProt O75795); assay: Activity of human recombinant UGT2B17 expressed in insect cells assessed as intrinsic clearance for enzyme-mediated N-carbamoyl glucuronide formation per mg protein; assay type: ADME
T1 sequence (O75795 whole entry): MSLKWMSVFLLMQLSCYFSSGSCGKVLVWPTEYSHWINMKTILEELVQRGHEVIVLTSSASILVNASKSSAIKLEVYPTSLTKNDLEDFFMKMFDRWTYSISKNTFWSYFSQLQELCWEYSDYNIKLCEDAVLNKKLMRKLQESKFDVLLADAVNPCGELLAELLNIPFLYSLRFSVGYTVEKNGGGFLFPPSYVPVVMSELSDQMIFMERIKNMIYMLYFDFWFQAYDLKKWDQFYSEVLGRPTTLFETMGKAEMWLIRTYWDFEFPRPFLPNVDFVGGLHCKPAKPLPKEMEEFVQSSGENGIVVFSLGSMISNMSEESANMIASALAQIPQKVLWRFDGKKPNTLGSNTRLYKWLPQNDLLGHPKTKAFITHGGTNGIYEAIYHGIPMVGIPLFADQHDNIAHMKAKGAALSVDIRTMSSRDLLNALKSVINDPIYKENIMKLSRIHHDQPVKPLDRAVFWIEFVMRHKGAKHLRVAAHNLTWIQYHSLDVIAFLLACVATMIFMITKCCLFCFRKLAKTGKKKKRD

[2] = Drug metabolism in non-smoking human lung assessed as N-carbamoyl glucuronide formation per mg protein at 100 uM; assay type: ADME, tissue-based
[3] = Drug metabolism in human kidney assessed as N-carbamoyl glucuronide formation per mg protein at 100 uM; assay type: ADME, tissue-based
Liver microsome [4] = assay: Drug metabolism in human liver microsomes assessed as N-carbamoyl glucuronide formation; assay type: ADME
Liver = assay: Drug metabolism in human liver assessed as N-carbamoyl glucuronide formation per mg protein at 100 uM; assay type: ADME, tissue-based
Liver microsome [5] = assay: Drug metabolism in human liver microsomes assessed as N-carbamoyl glucuronide formation at 100 uM in presence of 5 uM bisphenol; assay type: ADME
Liver microsome [6] = assay: Drug metabolism in human liver microsomes assessed as intrinsic clearance for N-carbamoyl glucuronide formation per mg protein; assay type: ADME
Liver microsome [7] = assay: Drug metabolism in human liver microsomes assessed as N-carbamoyl glucuronide formation at 100 uM in presence of 5 uM mefenamic acid; assay type: ADME
Liver microsome [8] = assay: Drug metabolism in human liver microsomes assessed as N-carbamoyl glucuronide formation at 100 uM in presence of 20 uM eugenol; assay type: ADME
[9] = target: T2, UDP-glucuronosyltransferase 2B7 (Homo sapiens, UniProt P16662); assay: Activity of human recombinant UGT2B7 expressed in insect cells assessed as intrinsic clearance for enzyme-mediated N-carbamoyl glucuronide formation; assay type: ADME
T2 sequence (P16662 whole entry): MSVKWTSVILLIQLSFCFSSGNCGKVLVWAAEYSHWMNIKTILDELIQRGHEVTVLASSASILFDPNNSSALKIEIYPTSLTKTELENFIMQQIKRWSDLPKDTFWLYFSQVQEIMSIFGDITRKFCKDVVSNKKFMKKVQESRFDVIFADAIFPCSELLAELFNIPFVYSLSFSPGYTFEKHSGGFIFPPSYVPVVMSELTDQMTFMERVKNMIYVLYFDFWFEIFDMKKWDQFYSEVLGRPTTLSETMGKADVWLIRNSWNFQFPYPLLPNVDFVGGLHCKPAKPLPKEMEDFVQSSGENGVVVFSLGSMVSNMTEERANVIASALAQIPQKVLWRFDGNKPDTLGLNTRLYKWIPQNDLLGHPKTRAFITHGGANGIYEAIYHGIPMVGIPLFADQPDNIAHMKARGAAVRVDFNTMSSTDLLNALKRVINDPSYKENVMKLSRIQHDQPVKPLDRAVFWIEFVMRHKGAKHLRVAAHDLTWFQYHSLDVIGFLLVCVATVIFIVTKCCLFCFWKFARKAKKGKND

[10] = Drug metabolism in human intestine assessed as N-carbamoyl glucuronide formation per mg protein at 100 uM; assay type: ADME, tissue-based
[11] = target: T3, UDP-glucuronosyltransferase 1A9 (Homo sapiens, UniProt O60656); assay: Activity of human recombinant UGT1A9 expressed in insect cells assessed as intrinsic clearance for enzyme-mediated N-carbamoyl glucuronide formation; assay type: ADME
T3 sequence (O60656 whole entry): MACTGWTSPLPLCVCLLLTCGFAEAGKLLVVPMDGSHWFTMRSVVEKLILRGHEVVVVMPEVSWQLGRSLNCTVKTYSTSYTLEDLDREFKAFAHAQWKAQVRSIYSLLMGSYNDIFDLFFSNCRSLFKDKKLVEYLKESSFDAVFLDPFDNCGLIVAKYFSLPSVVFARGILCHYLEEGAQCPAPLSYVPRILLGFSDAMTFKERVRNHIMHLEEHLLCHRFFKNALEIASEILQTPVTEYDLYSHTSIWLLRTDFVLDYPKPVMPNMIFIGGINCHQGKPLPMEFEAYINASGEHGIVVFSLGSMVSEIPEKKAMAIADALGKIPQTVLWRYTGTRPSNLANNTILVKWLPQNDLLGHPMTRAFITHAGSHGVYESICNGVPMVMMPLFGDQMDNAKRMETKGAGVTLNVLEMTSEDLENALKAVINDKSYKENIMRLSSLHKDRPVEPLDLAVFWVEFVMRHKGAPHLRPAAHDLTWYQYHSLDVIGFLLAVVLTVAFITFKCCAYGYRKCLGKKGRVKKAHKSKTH

[12] = target: T3, UDP-glucuronosyltransferase 1A9; assay: Activity of human recombinant UGT1A9 expressed in insect cells assessed as intrinsic clearance for enzyme-mediated N-carbamoyl glucuronide formation per mg protein; assay type: ADME
[13] = target: T4, UDP-glucuronosyltransferase 1A6 (Homo sapiens, UniProt P19224); assay: Activity of human recombinant UGT1A6 expressed in insect cells assessed as intrinsic clearance for enzyme-mediated N-carbamoyl glucuronide formation; assay type: ADME
T4 sequence (P19224 whole entry): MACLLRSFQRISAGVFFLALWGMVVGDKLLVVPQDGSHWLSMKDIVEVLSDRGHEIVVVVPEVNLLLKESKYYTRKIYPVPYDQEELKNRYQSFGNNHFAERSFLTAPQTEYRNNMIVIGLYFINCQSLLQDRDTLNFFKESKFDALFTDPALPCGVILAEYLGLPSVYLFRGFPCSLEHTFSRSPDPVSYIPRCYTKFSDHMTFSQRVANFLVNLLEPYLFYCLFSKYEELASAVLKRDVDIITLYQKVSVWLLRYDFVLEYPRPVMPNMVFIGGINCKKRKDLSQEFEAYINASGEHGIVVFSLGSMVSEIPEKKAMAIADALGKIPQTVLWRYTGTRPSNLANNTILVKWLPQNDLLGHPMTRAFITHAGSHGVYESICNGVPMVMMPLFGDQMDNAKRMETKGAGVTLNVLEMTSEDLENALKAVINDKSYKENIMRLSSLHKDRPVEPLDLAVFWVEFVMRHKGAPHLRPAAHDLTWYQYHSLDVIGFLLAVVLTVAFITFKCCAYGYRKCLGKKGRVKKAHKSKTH

Liver microsome [14] = assay: Drug metabolism in human liver microsomes assessed as 25 uM bisphenol-mediated inhibition of N-carbamoyl glucuronide formation at 100 uM; assay type: ADME
Liver microsome [15] = assay: Drug metabolism in human liver microsomes assessed as N-carbamoyl glucuronide formation per mg protein; assay type: ADME
[16] = target: T5, UDP-glucuronosyltransferase 2B15 (Homo sapiens, UniProt P54855); assay: Activity of human recombinant UGT2B15 expressed in insect cells assessed as intrinsic clearance for enzyme-mediated N-carbamoyl glucuronide formation; assay type: ADME
T5 sequence (P54855 whole entry): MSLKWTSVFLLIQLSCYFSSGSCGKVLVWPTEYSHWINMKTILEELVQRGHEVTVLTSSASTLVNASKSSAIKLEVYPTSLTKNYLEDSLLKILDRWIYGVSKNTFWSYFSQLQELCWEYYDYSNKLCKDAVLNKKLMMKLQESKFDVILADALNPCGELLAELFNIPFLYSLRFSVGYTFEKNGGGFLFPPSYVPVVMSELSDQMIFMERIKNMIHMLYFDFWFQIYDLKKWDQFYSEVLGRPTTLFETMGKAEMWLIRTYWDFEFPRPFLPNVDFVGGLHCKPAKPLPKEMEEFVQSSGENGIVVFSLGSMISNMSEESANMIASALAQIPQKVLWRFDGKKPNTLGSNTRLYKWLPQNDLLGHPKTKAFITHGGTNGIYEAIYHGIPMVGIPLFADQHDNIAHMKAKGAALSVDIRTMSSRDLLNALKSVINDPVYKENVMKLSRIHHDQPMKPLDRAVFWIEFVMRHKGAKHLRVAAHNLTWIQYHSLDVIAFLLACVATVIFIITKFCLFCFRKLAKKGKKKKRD

Liver microsome [17] = assay: Drug metabolism in human liver microsomes assessed as 100 uM eugenol-mediated inhibition of N-carbamoyl glucuronide formation at 1 uM; assay type: ADME
[18] = target: T2, UDP-glucuronosyltransferase 2B7; assay: Activity of human recombinant UGT2B7 expressed in insect cells assessed as intrinsic clearance for enzyme-mediated N-carbamoyl glucuronide formation per mg protein; assay type: ADME
[19] = target: T5, UDP-glucuronosyltransferase 2B15; assay: Activity of human recombinant UGT2B15 expressed in insect cells assessed as intrinsic clearance for enzyme-mediated N-carbamoyl glucuronide formation per mg protein; assay type: ADME
[20] = target: T1, UDP-glucuronosyltransferase 2B17; assay: Activity of human recombinant UGT2B17 expressed in insect cells assessed as intrinsic clearance for enzyme-mediated N-carbamoyl glucuronide formation; assay type: ADME
[21] = Drug metabolism in smoking human lung assessed as N-carbamoyl glucuronide formation per mg protein at 100 uM; assay type: ADME, tissue-based
Liver microsome [22] = assay: Drug metabolism in human liver microsomes assessed as 100 uM eugenol-mediated inhibition of N-carbamoyl glucuronide formation at 100 uM; assay type: ADME

## C[C@H]1CNCCc2ccc(Cl)cc21.Cl.O
[1]
  CL: 0.611 µL/min/g
[2]
  Drug metabolism: 0.493 pmol/min
[3]
  Drug metabolism: 185.9 pmol/min
Liver microsome [4]
  Km: 128 µM
Liver
  Drug metabolism: 1028 pmol/min
Liver microsome [5]
  Drug metabolism: metabolite_detected
Liver microsome [6]
  CLH: 18.57 µL/min/g
Liver microsome [7]
  Drug metabolism: metabolite_detected
Liver microsome [8]
  Drug metabolism: metabolite_detected
[9]
  Drug metabolism: metabolite_detected
[10]
  Drug metabolism: 133.1 pmol/min
[11]
  Drug metabolism: metabolite_detected
[12]
  CL: 0.199 µL/min/g
[13]
  Drug metabolism: metabolite_detected
Liver microsome [14]
  inhibition (INH): 30%
Liver microsome [15]
  Vmax: 2379.2 pmol/min
[16]
  Drug metabolism: metabolite_detected
Liver microsome [17]
  inhibition (INH): 18%
[18]
  CL: 1.987 µL/min/g
[19]
  CL: 4.601 µL/min/g
[20]
  Drug metabolism: metabolite_detected
[21]
  Drug metabolism: 1.116 pmol/min
Liver microsome [22]
  inhibition (INH): 11%
